For 13 compounds, IC50 results are on record in ChEMBL document CHEMBL1914402, “Design, synthesis, and biological evaluation of 3,4-dihydroquinolin-2(1H)-one and 1,2,3,4-tetrahydroquinoline-based selective human neuronal nitric oxide synthase (nNOS) inhibitors” (J Med Chem, 2011).

The target of test [1] is T1, Nitric oxide synthase 3 (Homo sapiens, UniProt P29474).
T1 sequence (P29474 whole entry): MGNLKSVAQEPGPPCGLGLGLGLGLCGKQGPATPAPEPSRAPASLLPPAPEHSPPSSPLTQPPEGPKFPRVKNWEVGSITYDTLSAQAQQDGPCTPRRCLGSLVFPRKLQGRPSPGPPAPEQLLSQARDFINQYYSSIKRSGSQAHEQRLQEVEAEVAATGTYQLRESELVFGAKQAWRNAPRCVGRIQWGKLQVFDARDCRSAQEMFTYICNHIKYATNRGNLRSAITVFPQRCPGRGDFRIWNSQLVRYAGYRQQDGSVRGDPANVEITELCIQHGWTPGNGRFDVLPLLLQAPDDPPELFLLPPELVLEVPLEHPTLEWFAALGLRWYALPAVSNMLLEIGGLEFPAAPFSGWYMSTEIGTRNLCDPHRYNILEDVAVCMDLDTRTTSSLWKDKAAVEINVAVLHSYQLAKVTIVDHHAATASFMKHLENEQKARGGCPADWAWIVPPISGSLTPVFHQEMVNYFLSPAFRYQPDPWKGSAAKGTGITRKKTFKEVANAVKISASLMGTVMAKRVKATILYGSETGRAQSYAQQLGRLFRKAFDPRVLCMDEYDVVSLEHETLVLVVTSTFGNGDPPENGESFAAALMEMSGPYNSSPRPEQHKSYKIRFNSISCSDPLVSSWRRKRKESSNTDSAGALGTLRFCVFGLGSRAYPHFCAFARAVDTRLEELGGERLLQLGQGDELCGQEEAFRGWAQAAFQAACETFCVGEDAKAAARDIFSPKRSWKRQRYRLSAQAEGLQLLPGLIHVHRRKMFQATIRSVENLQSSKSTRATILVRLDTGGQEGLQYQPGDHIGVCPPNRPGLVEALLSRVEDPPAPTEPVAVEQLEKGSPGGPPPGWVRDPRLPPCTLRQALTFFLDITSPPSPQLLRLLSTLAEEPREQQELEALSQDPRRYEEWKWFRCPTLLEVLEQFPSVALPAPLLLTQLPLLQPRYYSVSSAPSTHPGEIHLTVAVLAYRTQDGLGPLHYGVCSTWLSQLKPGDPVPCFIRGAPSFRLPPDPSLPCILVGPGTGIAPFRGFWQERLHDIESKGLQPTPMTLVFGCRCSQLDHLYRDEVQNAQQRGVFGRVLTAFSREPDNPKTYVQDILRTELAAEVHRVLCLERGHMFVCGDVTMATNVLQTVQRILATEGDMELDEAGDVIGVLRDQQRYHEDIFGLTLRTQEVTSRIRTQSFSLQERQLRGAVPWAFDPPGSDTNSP
Put plainly: Inhibition of human recombinant eNOS expressed in baculovirus infected Sf9 cells assessed as conversion of [3H]L-arginine to [3H]L-citrulline preincubated for 15 mins measured after 45 mins by liquid scintillation counting. It counts as cell-based.

Test [2] addresses Nitric oxide synthase 1 (Homo sapiens, UniProt P29475). Put plainly: Inhibition of human recombinant nNOS expressed in baculovirus infected Sf9 cells assessed as conversion of [3H]L-arginine to [3H]L-citrulline preincubated for 15 mins measured after 45 mins by liquid scintillation counting. It counts as cell-based.
The target in test [3] is Cytochrome P450 2C9 (Homo sapiens, UniProt P11712). Put plainly: Inhibition of human CYP2C9. In kind it is ADME.
Test [4] concerns the target T2, Cytochrome P450 1A2 (Homo sapiens, UniProt P05177).
T2 sequence (P05177 whole entry): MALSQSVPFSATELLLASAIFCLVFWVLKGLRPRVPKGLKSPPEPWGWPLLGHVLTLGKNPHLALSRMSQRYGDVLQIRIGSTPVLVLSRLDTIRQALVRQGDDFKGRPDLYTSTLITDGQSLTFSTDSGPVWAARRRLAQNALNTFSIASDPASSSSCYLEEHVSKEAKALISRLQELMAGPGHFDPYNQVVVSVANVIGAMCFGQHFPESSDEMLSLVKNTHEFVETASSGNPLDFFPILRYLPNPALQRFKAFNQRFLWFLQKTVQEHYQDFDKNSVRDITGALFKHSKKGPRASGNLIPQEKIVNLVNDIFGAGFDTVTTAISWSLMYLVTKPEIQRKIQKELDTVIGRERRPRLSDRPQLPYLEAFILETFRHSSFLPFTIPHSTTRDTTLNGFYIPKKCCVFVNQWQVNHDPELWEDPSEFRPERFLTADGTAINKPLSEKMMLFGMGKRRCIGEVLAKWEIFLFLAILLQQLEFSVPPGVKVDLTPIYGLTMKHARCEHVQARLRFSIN
Put plainly: Inhibition of human CYP1A2. In kind it is ADME.

In test [5] the target is Nitric oxide synthase, inducible (Homo sapiens, UniProt P35228). Put plainly: Inhibition of human recombinant iNOS expressed in baculovirus infected Sf9 cells assessed as conversion of [3H]L-arginine to [3H]L-citrulline preincubated for 15 mins measured after 45 mins by liquid scintillation counting. In kind it is cell-based.
The target of test [6] is Cytochrome P450 3A4 (Homo sapiens, UniProt P08684). Put plainly: Inhibition of human CYP3A4. It counts as ADME.
For test [7], the target named is Cytochrome P450 2D6 (Homo sapiens, UniProt P10635). Description: Inhibition of human CYP2D6. It counts as ADME.
Test [8] deals with Cytochrome P450 2C19 (Homo sapiens, UniProt P33261). Description: Inhibition of human CYP2C19. It counts as ADME.

Molecules are shown by their SMILES.

Chain of Nitric oxide synthase 1 (P29475 whole entry): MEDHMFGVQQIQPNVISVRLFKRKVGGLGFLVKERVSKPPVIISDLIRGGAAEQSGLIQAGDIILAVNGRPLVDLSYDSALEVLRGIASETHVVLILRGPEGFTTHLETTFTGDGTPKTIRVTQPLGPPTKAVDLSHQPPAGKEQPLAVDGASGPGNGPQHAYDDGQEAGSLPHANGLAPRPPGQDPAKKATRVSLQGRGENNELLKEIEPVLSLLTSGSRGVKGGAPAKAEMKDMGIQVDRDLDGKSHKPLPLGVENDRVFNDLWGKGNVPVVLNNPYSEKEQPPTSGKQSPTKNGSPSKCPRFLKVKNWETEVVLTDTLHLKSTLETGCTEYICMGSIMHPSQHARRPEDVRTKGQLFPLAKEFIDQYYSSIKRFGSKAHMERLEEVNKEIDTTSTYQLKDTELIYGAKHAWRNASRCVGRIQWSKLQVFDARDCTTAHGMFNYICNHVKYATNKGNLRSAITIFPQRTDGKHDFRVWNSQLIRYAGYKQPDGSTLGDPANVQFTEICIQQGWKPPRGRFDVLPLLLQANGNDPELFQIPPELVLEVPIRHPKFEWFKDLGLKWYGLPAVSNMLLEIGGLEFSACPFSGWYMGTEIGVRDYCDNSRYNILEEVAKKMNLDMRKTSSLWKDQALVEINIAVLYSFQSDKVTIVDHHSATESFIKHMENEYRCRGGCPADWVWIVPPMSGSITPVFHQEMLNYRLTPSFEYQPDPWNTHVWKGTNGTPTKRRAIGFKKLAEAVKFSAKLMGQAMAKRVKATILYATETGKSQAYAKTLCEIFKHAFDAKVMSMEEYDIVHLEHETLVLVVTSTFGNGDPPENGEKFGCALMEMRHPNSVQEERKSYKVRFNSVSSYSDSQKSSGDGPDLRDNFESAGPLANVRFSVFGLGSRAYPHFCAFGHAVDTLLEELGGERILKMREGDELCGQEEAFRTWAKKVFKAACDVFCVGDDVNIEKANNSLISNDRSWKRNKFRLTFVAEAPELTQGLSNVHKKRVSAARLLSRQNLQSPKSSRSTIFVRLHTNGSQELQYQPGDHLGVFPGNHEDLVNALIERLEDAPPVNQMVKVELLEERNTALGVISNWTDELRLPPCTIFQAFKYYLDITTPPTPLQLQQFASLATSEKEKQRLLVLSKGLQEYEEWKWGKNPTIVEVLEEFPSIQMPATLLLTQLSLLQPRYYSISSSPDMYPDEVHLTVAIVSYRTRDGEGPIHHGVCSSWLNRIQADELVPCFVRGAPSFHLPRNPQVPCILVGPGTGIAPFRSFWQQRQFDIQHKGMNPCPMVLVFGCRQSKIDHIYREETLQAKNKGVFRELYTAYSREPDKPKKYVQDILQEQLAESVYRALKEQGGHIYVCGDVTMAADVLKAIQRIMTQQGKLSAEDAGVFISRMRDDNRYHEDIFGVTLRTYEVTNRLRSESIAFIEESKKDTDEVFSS
Chain of Cytochrome P450 2D6 (P10635 whole entry): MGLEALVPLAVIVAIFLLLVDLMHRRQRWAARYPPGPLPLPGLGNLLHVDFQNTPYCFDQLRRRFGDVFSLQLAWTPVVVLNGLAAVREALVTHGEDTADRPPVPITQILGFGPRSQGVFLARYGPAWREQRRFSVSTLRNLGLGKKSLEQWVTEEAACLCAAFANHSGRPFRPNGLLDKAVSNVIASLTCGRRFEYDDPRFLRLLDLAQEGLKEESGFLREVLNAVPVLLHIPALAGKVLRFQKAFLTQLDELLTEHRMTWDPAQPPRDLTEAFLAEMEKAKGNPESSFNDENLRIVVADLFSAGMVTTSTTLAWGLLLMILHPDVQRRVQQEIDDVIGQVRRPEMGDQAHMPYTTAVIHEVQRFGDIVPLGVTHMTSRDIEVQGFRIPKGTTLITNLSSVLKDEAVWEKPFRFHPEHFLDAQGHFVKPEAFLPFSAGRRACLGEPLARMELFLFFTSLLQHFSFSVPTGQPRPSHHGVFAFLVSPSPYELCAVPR
Chain of Nitric oxide synthase, inducible (P35228 whole entry): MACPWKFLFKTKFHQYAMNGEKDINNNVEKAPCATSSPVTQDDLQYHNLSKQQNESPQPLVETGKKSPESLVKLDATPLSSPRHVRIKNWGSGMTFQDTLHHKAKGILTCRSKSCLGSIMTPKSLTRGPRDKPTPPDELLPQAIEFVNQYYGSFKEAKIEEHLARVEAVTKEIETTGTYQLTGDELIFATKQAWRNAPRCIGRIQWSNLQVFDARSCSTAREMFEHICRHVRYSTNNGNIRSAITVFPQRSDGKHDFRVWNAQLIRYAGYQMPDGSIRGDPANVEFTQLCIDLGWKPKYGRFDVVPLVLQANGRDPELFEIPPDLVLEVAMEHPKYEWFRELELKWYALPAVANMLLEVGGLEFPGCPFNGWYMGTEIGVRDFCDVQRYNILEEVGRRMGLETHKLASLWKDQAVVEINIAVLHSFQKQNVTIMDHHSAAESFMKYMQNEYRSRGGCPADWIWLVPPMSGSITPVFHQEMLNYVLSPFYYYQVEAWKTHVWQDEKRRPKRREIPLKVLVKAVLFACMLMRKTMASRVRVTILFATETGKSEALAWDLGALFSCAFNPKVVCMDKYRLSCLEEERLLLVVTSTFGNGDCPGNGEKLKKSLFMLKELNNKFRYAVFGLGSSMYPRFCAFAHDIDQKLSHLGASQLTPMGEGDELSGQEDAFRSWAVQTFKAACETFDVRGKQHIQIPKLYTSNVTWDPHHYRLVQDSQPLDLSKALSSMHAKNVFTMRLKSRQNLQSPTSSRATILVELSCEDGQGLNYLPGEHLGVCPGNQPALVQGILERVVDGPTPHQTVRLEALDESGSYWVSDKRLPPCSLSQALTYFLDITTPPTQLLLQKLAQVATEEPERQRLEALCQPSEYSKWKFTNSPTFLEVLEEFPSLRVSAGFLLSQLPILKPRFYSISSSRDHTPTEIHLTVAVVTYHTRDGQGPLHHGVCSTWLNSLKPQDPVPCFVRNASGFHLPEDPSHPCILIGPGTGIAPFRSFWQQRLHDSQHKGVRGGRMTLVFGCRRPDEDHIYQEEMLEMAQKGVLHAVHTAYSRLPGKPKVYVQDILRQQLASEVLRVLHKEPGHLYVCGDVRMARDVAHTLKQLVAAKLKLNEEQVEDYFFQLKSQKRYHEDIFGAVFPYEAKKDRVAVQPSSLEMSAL
Chain of Cytochrome P450 2C9 (P11712 whole entry): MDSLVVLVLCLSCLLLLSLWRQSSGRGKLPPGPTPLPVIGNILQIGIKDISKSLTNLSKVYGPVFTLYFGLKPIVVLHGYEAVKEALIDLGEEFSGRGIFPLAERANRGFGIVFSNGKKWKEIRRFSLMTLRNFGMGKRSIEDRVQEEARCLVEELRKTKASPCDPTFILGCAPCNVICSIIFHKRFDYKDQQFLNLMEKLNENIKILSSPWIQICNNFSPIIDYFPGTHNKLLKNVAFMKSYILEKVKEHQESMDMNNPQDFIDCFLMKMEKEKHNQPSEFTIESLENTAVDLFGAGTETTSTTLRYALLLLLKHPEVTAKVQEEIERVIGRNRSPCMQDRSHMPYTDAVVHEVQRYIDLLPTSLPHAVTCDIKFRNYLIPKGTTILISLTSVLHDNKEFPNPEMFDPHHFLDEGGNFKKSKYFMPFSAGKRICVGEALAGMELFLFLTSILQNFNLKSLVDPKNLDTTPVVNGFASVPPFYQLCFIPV
Chain of Cytochrome P450 2C19 (P33261 whole entry): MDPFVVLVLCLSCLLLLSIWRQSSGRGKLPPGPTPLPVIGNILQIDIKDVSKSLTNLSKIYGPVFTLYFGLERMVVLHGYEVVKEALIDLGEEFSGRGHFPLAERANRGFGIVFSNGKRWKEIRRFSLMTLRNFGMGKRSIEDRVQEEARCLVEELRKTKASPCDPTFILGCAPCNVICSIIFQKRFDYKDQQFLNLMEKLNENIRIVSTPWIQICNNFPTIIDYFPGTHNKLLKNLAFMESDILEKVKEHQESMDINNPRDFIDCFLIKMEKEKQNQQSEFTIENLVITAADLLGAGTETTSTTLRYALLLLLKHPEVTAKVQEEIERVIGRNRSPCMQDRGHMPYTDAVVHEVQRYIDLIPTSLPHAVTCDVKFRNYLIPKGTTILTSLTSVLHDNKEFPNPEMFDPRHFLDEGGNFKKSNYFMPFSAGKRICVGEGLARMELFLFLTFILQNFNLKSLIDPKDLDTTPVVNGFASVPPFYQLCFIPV
Chain of Cytochrome P450 3A4 (P08684 whole entry): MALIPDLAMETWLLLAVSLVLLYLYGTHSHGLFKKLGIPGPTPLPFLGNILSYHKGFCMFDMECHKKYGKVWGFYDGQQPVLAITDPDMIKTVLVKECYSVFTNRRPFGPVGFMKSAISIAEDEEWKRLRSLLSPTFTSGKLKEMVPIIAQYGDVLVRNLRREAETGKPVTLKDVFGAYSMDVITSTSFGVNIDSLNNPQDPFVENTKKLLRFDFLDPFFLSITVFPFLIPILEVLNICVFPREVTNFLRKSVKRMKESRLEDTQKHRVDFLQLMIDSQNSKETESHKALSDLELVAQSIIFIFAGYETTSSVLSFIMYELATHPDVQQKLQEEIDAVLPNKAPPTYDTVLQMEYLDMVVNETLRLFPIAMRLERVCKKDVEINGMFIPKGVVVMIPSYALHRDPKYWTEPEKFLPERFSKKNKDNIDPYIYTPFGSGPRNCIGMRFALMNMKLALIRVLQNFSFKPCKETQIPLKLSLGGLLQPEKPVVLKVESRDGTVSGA

For orientation: IC50 means the point on the concentration scale where inhibition reaches its midpoint. Turning to `N=C(Nc1ccc2c(c1)CCCN2CCCN1CCCC1)c1cccs1`, the 50% inhibitory concentration (IC50) was determined as 9.5 µM in test [1] and 0.086 µM in test [2].

Take `CN(C)CCN1C(=O)CCc2cc(NC(=N)c3cccs3)ccc21`: the IC50 in test [3] is more than 100 µM; in test [4], more than 100 µM; in test [5], 35 µM; in test [6], more than 100 µM; in test [7], 12.2 µM; in test [8], more than 100 µM.

`N=C(Nc1ccc2c(c1)CCCN2C1CCNCC1)c1cccs1`: the IC50 in test [3] is more than 100 µM; in test [4] it was more than 100 µM; in test [5], more than 100 µM; in test [6] it was more than 100 µM; in test [1] it was 119 µM; in test [7], more than 100 µM. Besides, the IC50 in test [8] turned out to be 47.1 µM; in test [2] it was 0.54 µM.

`N=C(Nc1ccc2c(c1)CCC(=O)N2CCN1CCCC1)c1cccs1`: the half-maximal inhibitory concentration (IC50) is 11 µM in test [5] and 0.16 µM in test [2].

Turning to `CN(C)CCN1CCCc2cc(NC(=N)c3cccs3)cc(F)c21`, the IC50 in test [2] amounted to 0.093 µM.

For `N=C(Nc1ccc2c(c1)CCC(=O)N2CCN1CCCCC1)c1cccs1`, the 50% inhibitory concentration (IC50) in test [5] was more than 100 µM.

Turning to `CN(C)CCN1CCCc2cc(NC(=N)c3cccs3)ccc21`, the 50% inhibitory concentration (IC50) in test [3], in test [4], in test [6], in test [7] and in test [8] was more than 100 µM each time.

Turning to `CN(C)CCN1C(=O)CCc2cc(NC(=N)c3cccs3)cc(F)c21`, in test [2], the half-maximal inhibitory concentration (IC50) is 3.36 µM.

On to `CN1CCC(N2CCCc3cc(NC(=N)c4cccs4)ccc32)CC1`, for which the half-maximal inhibitory concentration (IC50) worked out at 42.7 µM in test [1] and 0.82 µM in test [2].

Take `CN1CCCC1CCN1C(=O)CCc2cc(NC(=N)c3cccs3)ccc21` (racemic): the IC50 is more than 100 µM in test [5] and 1.05 µM in test [2].

Turning to `N=C(Nc1ccc2c(c1)CCC(=O)N2CCCN1CCCC1)c1cccs1`, the IC50 is more than 100 µM in test [5] and 1.22 µM in test [2].

Turning to `CCN(CC)CCN1C(=O)CCc2cc(NC(=N)c3cccs3)ccc21`, the concentration for half-maximal inhibition (IC50) in test [5] is 12 µM.

`CCN(CC)CCN1CCCc2cc(NC(=N)c3cccs3)ccc21`: the IC50 in test [5] is more than 100 µM; in test [2] it was 0.26 µM.
